Our source for the IC50 values is patent US11530210B2, “Substituted heteroaromatic pyrazolo-pyridines and their use as GLUN2B receptor modulators” (JANSSEN PHARMACEUTICA NV, priority 2019, dated 2022).

For this experiment, the target named is T1, human GluN1/GluN2B NMDA receptors (Homo sapiens, UniProt Q13224).
T1 construct: expressed in transfected cells
As to the kind of experiment: Calcium flux (FLIPR) assay on cloned human NR1/GluN2B ion channels expressed in mammalian cells (standard and HTS variants). The settings on record: cells expressing human GluN1/GluN2B, glutamate and glycine co-agonists. Format: cell-based. How it is done: Effects of Test Articles on Cloned Human NR1/GuN2B Ion Channels Expressed in Mammalian Cells
NMDA receptors are ion channels that are highly permeable to Ca^2+ ions, rendering it possible to monitor NMDA receptor function using cell-based calcium flux assay. In this assay, co-agonists glutamate and glycine are added to cells heterologously expressing human GluN1/GluN2B NMDA receptors to initiate cellular Ca^2+ influx. The time course of the changes in intracellular calcium is measured using a fluorescent dye and a FLIPR (Fluorometric Imaging Plate Reader) device.
Twenty-four hours before measurements, the expression of the NMDA receptors in the stable cell line is induced with Tet-On inducible system in the presence of a non-selective NMDA receptor blocker. On the day of the experiment, cell culture media is carefully washed, and the cells are loaded with Calcium 5 Dye Kit (Molecular Devices) in dye loading buffer containing 137 mM NaCl, 4 mM KCl, 2 mM CaCl2, 0.5 mM MgCl2 (standard assay) or 1.5 mM MgCl2 (HTS assay), 10 mM HEPES and 5 mM D-glucose; pH 7.4. After 1 h incubation at the room temperature, the dye is washed away with the assay buffer (137 mM NaCl (standard assay) or 150 mM (HTS assay), 4 mM KCl (standard assay) or 3 mM (HTS assay), 2 mM CaCl2), 0.01 mM EDTA, 10 mM HEPES and 5 mM D-glucose; pH 7.4) In the FLIPR TETRA reader, various concentrations of the test compounds are added to the cells for 5 min while fluorescence is monitored to detect potential agonist activity. Next, co-agonists, glutamate and glycine are added for another 5 minutes. The concentration of glutamate corresponding to ˜EC40 (standard assay) or EC40 (HTS assay) is used to maximize the assay's signal window and ability to detect NMDA receptor antagonists and negative allosteric modulators. A saturating concentration (10 μM) of glycine is also present in the assay. A non-selective NMDA receptor antagonist, (+)MK-801 is used as a positive control for antagonist activity. The fluorescent signal in the presence of test compounds is quantified and normalized to the signal defined by the appropriate control wells.
(In general: Calcium assays in cells follow changes in intracellular calcium, usually with a dye or a luminescent sensor.)

T1 sequence (Q13224 27-1484, other chains not shown): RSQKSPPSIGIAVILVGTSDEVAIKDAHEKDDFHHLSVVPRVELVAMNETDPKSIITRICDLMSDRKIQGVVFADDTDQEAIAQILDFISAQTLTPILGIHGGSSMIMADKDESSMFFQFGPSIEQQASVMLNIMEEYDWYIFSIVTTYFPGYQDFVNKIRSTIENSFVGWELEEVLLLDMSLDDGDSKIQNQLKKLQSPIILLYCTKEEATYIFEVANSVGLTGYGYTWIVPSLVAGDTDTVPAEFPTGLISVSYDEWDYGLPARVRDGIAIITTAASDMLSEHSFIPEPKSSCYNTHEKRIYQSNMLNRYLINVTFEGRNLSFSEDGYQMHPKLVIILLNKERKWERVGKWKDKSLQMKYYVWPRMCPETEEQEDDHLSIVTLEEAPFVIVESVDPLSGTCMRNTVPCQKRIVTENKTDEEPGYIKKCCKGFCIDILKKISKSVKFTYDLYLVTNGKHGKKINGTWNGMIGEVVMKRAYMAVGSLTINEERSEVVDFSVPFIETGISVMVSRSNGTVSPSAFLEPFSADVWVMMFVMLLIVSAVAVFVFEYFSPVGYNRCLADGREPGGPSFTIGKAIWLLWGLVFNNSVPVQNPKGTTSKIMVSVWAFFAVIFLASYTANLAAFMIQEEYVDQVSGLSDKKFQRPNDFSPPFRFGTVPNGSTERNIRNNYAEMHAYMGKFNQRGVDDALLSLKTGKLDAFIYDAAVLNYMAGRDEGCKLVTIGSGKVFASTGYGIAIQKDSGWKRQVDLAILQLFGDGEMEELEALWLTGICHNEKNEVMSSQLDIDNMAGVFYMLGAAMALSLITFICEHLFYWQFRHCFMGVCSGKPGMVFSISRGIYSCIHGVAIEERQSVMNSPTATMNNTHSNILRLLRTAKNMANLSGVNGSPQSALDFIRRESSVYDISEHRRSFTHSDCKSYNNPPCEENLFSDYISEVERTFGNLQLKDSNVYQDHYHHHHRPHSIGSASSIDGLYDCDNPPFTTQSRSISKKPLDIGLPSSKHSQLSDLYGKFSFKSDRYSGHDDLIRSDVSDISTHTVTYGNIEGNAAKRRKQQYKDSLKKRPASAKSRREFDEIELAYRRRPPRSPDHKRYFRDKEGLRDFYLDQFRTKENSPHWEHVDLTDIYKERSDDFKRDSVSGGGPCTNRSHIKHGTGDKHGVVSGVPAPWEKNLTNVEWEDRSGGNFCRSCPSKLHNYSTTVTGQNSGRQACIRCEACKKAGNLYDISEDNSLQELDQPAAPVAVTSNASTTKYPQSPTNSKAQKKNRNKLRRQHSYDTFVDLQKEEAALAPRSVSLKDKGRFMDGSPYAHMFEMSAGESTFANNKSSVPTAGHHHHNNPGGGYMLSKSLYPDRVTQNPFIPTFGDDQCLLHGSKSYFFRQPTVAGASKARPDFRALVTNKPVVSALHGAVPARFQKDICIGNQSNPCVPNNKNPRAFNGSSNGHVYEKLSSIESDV

Regarding `Cn1cnc(Cn2ncc3ncc(-c4cccc(C(F)(F)F)c4)cc32)c1` [Example 36, 1-[(1-Methylimidazol-4-yl)methyl]-6-[3-(trifluoromethyl)phenyl]pyrazolo[4,3-b]pyridine], the IC50 is 668 nM.

As for `Cc1cc(Cn2ncc3ncc(-c4cccc(C(F)(F)F)c4)cc32)n(C)n1` [Example 37, 1-[(2,5-Dimethylpyrazol-3-yl)methyl]-6-[3-(trifluoromethyl)phenyl]pyrazolo[4,3-b]pyridine], the IC50 came out at 3950 nM.

`Fc1ccc(-c2cnc3cnn(Cc4cn[nH]c4)c3c2)cc1C(F)F` [Example 38, 6-[3-(Difluoromethyl)-4-fluoro-phenyl]-1-(1H-pyrazol-4-ylmethyl)pyrazolo[4,3-b]pyridine]: the IC50 was 226 nM.

With `Cn1ccc(Cn2ncc3ncc(-c4ccc(F)c(C(F)F)c4)cc32)n1` [Example 39, 6-[3-(Difluoromethyl)-4-fluoro-phenyl]-1-[(1-methylpyrazol-3-yl)methyl]pyrazolo[4,3-b]pyridine], the IC50 worked out at 271 nM.

Take `FC(F)Oc1cc(-c2cnc3cnn(Cc4cn[nH]c4)c3c2)ccc1Cl` [Example 41, 6-[4-Chloro-3-(difluoromethoxy)phenyl]-1-(1H-pyrazol-4-ylmethyl)pyrazolo[4,3-b]pyridine]: the IC50 was determined as 423 nM.

With `Cc1cc(Cn2ncc3ncc(-c4ccc(F)cc4)cc32)on1` [Example 42, 5-[[6-(4-Fluorophenyl)pyrazolo[4,3-b]pyridin-1-yl]methyl]-3-methyl-isoxazole], the IC50 was determined as 475 nM.

For the compound `Cc1cc(Cn2ncc3ncc(-c4ccc(F)cc4)cc32)no1` [Example 43, 3-[[6-(4-Fluorophenyl)pyrazolo[4,3-b]pyridin-1-yl]methyl]-5-methyl-isoxazole], the IC50 stood at 139 nM.

Turning to `FC(F)(F)c1cccc(-c2cnc3cnn(Cc4ccon4)c3c2)c1` [Example 44, 3-[[6-[3-(Trifluoromethyl)phenyl]pyrazolo[4,3-b]pyridin-1-yl]methyl]isoxazole], the concentration for half-maximal inhibition (IC50) was determined as 165 nM.

On to `Cc1cc(Cn2ncc3ncc(-c4cccc(C(C)(F)F)c4)cc32)no1` [Example 45, 3-[[6-[3-(1,1-Difluoroethyl)phenyl]pyrazolo[4,3-b]pyridin-1-yl]methyl]-5-methyl-isoxazole], for which the concentration for half-maximal inhibition (IC50) was 44 nM.

Regarding `FC(F)(F)c1cccc(-c2cnc3cnn(Cc4cocn4)c3c2)c1` [Example 46, 4-[[6-[3-(Trifluoromethyl)phenyl]pyrazolo[4,3-b]pyridin-1-yl]methyl]oxazole], the IC50 was 538 nM.

As to `Cc1cc(Cn2ncc3ncc(-c4cccc(C(F)(F)F)c4)cc32)no1` [Example 47, 5-Methyl-3-[[6-[3-(trifluoromethyl)phenyl]pyrazolo[4,3-b]pyridin-1-yl]methyl]isoxazole], the IC50 is 148 nM.

Turning to `Cc1ncc(Cn2ncc3ncc(-c4ccc(F)c(C)c4)cc32)o1` [Example 48, 5-[[6-(4-Fluoro-3-methyl-phenyl)pyrazolo[4,3-b]pyridin-1-yl]methyl]-2-methyl-oxazole], the IC50 amounted to 113 nM.

On to `Cc1cnc(Cn2ncc3ncc(-c4ccc(F)c(C)c4)cc32)o1` [Example 49, 2-[[6-(4-Fluoro-3-methyl-phenyl)pyrazolo[4,3-b]pyridin-1-yl]methyl]-5-methyl-oxazole], for which the IC50 turned out to be 53 nM.

For the compound `Fc1ccc(-c2cnc3cnn(Cc4ccno4)c3c2)cc1C(F)F` [Example 50, 5-[[6-[3-(Difluoromethyl)-4-fluoro-phenyl]pyrazolo[4,3-b]pyridin-1-yl]methyl]isoxazole], the IC50 amounted to 31 nM.

With `Fc1ccc(-c2cnc3cnn(Cc4ccon4)c3c2)cc1C(F)F` [Example 51, 3-[[6-[3-(Difluoromethyl)-4-fluoro-phenyl]pyrazolo[4,3-b]pyridin-1-yl]methyl]isoxazole], the IC50 was 23 nM.

Consider `Cc1cc(Cn2ncc3ncc(-c4ccc(F)c(C(F)F)c4)cc32)no1` [Example 53, 3-[[6-[3-(Difluoromethyl)-4-fluoro-phenyl]pyrazolo[4,3-b]pyridin-1-yl]methyl]-5-methyl-isoxazole], for which the IC50 stood at 18 nM.

Take `Cc1ncc(Cn2ncc3ncc(-c4ccc(F)c(C(F)F)c4)cc32)o1` [Example 54, 5-[[6-[3-(Difluoromethyl)-4-fluoro-phenyl]pyrazolo[4,3-b]pyridin-1-yl]methyl]-2-methyl-oxazole]: the IC50 was 133 nM.

Turning to `Cc1nc(Cn2ncc3ncc(-c4ccc(F)c(C(F)F)c4)cc32)co1` [Example 55, 4-[[6-[3-(Difluoromethyl)-4-fluoro-phenyl]pyrazolo[4,3-b]pyridin-1-yl]methyl]-2-methyl-oxazole], the IC50 came out at 285 nM.

For `Cc1noc(C)c1Cn1ncc2ncc(-c3ccc(F)c(C(F)F)c3)cc21` [Example 57, 4-[[6-[3-(Difluoromethyl)-4-fluoro-phenyl]pyrazolo[4,3-b]pyridin-1-yl]methyl]-3,5-dimethyl-isoxazole], the IC50 amounted to 82 nM.

As for `Cc1cc(Cn2ncc3ncc(-c4ccc(F)c(C(C)(F)F)c4)cc32)no1` [Example 58, 3-[[6-[3-(1,1-Difluoroethyl)-4-fluoro-phenyl]pyrazolo[4,3-b]pyridin-1-yl]methyl]-5-methyl-isoxazole], the half-inhibitory concentration (IC50) came out at 158 nM.

Turning to `Cc1cc(Cn2ncc3ncc(-c4ccc(F)c(OC(F)F)c4)cc32)no1` [Example 59, 3-[[6-[3-(Difluoromethoxy)-4-fluoro-phenyl]pyrazolo[4,3-b]pyridin-1-yl]methyl]-5-methyl-isoxazole], the IC50 worked out at 61 nM.

For the compound `Cc1ncc(Cn2ncc3ncc(-c4ccc(F)c(OC(F)F)c4)cc32)o1` [Example 60, 5-[[6-[3-(Difluoromethoxy)-4-fluoro-phenyl]pyrazolo[4,3-b]pyridin-1-yl]methyl]-2-methyl-oxazole], the IC50 was found to be 559 nM.

Regarding `Cc1cnc(Cn2ncc3ncc(-c4ccc(F)c(OC(F)F)c4)cc32)o1` [Example 61, 2-[[6-[3-(Difluoromethoxy)-4-fluoro-phenyl]pyrazolo[4,3-b]pyridin-1-yl]methyl]-5-methyl-oxazole], the IC50 stood at 160 nM.

With `Cc1cc(Cn2ncc3ncc(-c4ccc(Cl)c(OC(F)F)c4)cc32)no1` [Example 62, 3-[[6-[4-Chloro-3-(difluoromethoxy)phenyl]pyrazolo[4,3-b]pyridin-1-yl]methyl]-5-methyl-isoxazole], the IC50 was determined as 159 nM.

On to `Cc1ncc(Cn2ncc3ncc(-c4ccc(F)c(C)c4F)cc32)o1` [Example 63, 5-[[6-(2,4-Difluoro-3-methyl-phenyl)pyrazolo[4,3-b]pyridin-1-yl]methyl]-2-methyl-oxazole], for which the IC50 was found to be 268 nM.

For the compound `Cc1cc(Cn2ncc3ncc(-c4cccc(C(F)(F)F)c4)cc32)ns1` [Example 64, 5-Methyl-3-[[6-[3-(trifluoromethyl)phenyl]pyrazolo[4,3-b]pyridin-1-yl]methyl]isothiazole], the concentration for half-maximal inhibition (IC50) worked out at 2240 nM.

On to `Cc1cnc(Cn2ncc3ncc(-c4ccc(F)c(C(F)F)c4)cc32)s1` [Example 65, 2-[[6-[3-(Difluoromethyl)-4-fluoro-phenyl]pyrazolo[4,3-b]pyridin-1-yl]methyl]-5-methyl-thiazole], for which the IC50 was determined as 84 nM.

As for `Cc1csc(Cn2ncc3ncc(-c4ccc(F)c(C(F)F)c4)cc32)n1` [Example 66, 2-[[6-[3-(Difluoromethyl)-4-fluoro-phenyl]pyrazolo[4,3-b]pyridin-1-yl]methyl]-4-methyl-thiazole], the half-maximal inhibitory concentration (IC50) worked out at 410 nM.

As to `Cc1nc(Cn2ncc3ncc(-c4ccc(F)c(C(F)F)c4)cc32)cs1` [Example 67, 4-[[6-[3-(Difluoromethyl)-4-fluoro-phenyl]pyrazolo[4,3-b]pyridin-1-yl]methyl]-2-methyl-thiazole], the IC50 amounted to 466 nM.

With `Cc1cnc(Cn2ncc3ncc(-c4ccc(F)c(C)c4)cc32)s1` [Example 68, 2-[[6-(4-Fluoro-3-methyl-phenyl)pyrazolo[4,3-b]pyridin-1-yl]methyl]-5-methyl-thiazole], the IC50 came out at 265 nM.

On to `Cc1cnc(Cn2ncc3ncc(-c4ccc(F)c(OC(F)F)c4)cc32)s1` [Example 69, 2-[[6-[3-(Difluoromethoxy)-4-fluoro-phenyl]pyrazolo[4,3-b]pyridin-1-yl]methyl]-5-methyl-thiazole], for which the IC50 is 104 nM.

Take `Cc1cnc(Cn2ncc3ncc(-c4ccc(F)c(C)c4F)cc32)s1` [Example 70, 2-[[6-(2,4-Difluoro-3-methyl-phenyl)pyrazolo[4,3-b]pyridin-1-yl]methyl]-5-methyl-thiazole]: the IC50 was found to be 350 nM.

For the compound `Cn1cnc(Cn2ncc3ncc(-c4cccc(C(F)(F)F)c4)cc32)n1` [Example 71, 1-[(1-Methyl-1,2,4-triazol-3-yl)methyl]-6-[3-(trifluoromethyl)phenyl]pyrazolo[4,3-b]pyridine], the IC50 was determined as 891 nM.

As a reminder, the IC50 is the concentration that inhibits the measured activity by half.
